Laboratory results: ChEMBL document CHEMBL1201862, “PubChem BioAssay data set” (2004)
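Where inhibition never reached the appropriate level, the endpoint shown equals the highest concentration tested. Otherwise, values were interpolated linearly from a five-concentration, 48-hour dose response in 96-well plates. GI50 is the concentration that inhibits growth by half.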 Active and inactive are the calls of the source. No stated cut-off is given here; in the data, active = GI50 up to about 1.1 µM and inactive = higher.

Columns and labels:
Assay in all cases: NCI anticancer screen, dose series, 48 h
[1] = system: 786-0
[2] = system: A498
[3] = system: A549
[4] = system: ACHN
[5] = system: CAKI-1
[6] = system: CCRF-CEM
[7] = system: COLO 205
[8] = system: DLD-1
[9] = system: DMS-114
[10] = system: DMS-273
[11] = system: EKVX
[12] = system: HCC 2998
[13] = system: HCT-116
[14] = system: HCT-15
[15] = system: HL-60
[16] = system: HOP-18
[17] = system: HOP-62
[18] = system: HOP-92
[19] = system: HT-29
[20] = system: IGROV-1
[21] = system: K562
[22] = system: KM-20L2
[23] = system: KM12
[24] = system: LOX IMVI
[25] = system: LXFL 529
[26] = system: M14
[27] = system: M19-MEL
[28] = system: MOLT-4
[29] = system: Malme-3M
[30] = system: NCI-H226
[31] = system: NCI-H23
[32] = system: NCI-H460
[33] = system: NCI-H522
[34] = system: OVCAR-3
[35] = system: OVCAR-4
[36] = system: OVCAR-5
[37] = system: OVCAR-8
[38] = system: RPMI-8226
[39] = system: RXF 393
[40] = system: RXF 631
[41] = system: SF-268
[42] = system: SF-295
[43] = system: SF-539
[44] = system: SK-MEL-28
[45] = system: SK-MEL-2
[46] = system: SK-MEL-5
[47] = system: SK-OV-3
[48] = system: SN12C
[49] = system: SNB-19
[50] = system: SNB-75
[51] = system: SNB-78
[52] = system: SR
[53] = system: SW-620
[54] = system: TK-10
[55] = system: U-251
[56] = system: UACC-257
[57] = system: UACC-62
[58] = system: UO-31
[59] = system: XF498

Measured: GI50

CCCCCC/C=C1\CCC(CN2CCCC2)C1=O (stereo not given)
9.16 µM: [14]
inactive: [1] 2.61 µM | [2] 22.8 µM | [3] 20.5 µM | [4] 18.3 µM | [5] > 38.5 µM | [6] 4.49 µM | [7] 16.4 µM | [8] 5.21 µM | [9] 13.8 µM | [10] 12.7 µM | [11] 18.5 µM | [12] 17.5 µM | [13] 11.9 µM | [15] 2.33 µM | [16] 18.7 µM | [17] 18.7 µM | [18] 16.7 µM | [19] 13.9 µM | [20] 19.7 µM | [21] 3.87 µM | [22] 20.5 µM | [23] 3.56 µM | [24] 8.3 µM | [25] 3.85 µM | [26] 18.6 µM | [27] 11.4 µM | [28] 3.76 µM | [29] 19.2 µM | [30] 19.1 µM | [31] 16.9 µM | [32] 24.6 µM | [33] 1.56 µM | [34] 13.9 µM | [35] 22.8 µM | [36] 18.3 µM | [37] 17.2 µM | [38] 2.01 µM | [39] 19.4 µM | [40] 20.1 µM | [41] 18.5 µM | [42] 18.9 µM | [43] 19 µM | [44] 19.1 µM | [45] 15.8 µM | [46] 18.6 µM | [47] 18.7 µM | [48] 12.9 µM | [49] > 38.5 µM | [50] 20.9 µM | [51] 26 µM | [52] 2.99 µM | [53] > 28.2 µM | [54] 6.56 µM | [55] 15.6 µM | [56] 17.9 µM | [57] 18.2 µM | [58] 18.9 µM | [59] 17.4 µM

CN(C)c1nnnn1-c1c(N)n(C)c(=O)n(C)c1=O
> 100 µM: [14]
inactive: [1] > 100 µM | [2] > 100 µM | [3] > 100 µM | [4] > 100 µM | [5] > 100 µM | [6] > 100 µM | [7] > 100 µM | [8] > 100 µM | [9] > 100 µM | [10] > 100 µM | [11] > 100 µM | [12] > 100 µM | [13] > 100 µM | [15] > 100 µM | [16] > 100 µM | [17] > 100 µM | [18] > 100 µM | [19] > 100 µM | [20] > 100 µM | [21] > 100 µM | [22] > 100 µM | [23] > 100 µM | [24] > 100 µM | [25] > 100 µM | [27] > 100 µM | [28] > 100 µM | [29] > 100 µM | [30] > 100 µM | [31] > 100 µM | [32] > 100 µM | [33] > 100 µM | [34] > 100 µM | [35] > 100 µM | [36] > 100 µM | [37] > 100 µM | [38] > 100 µM | [40] > 100 µM | [41] > 100 µM | [42] > 100 µM | [43] > 100 µM | [44] > 100 µM | [45] > 100 µM | [46] > 100 µM | [47] > 100 µM | [48] > 100 µM | [49] > 100 µM | [50] > 100 µM | [51] > 100 µM | [53] > 100 µM | [54] > 100 µM | [55] > 100 µM | [56] > 100 µM | [57] > 100 µM | [58] > 100 µM | [59] > 100 µM
